According to US8314143B2, “Synthetic flavonoids and pharmaceutical compositions and therapeutic methods of treatment of HIV infection and other pathologies” (Florida A&M University, priority 2006, dated 2012):
Where “and” joins values, the source holds several entries; their conditions need not be identical. Equal values may be shown once.

Assays:
Assay type in all cases: cell-based
[1] = test system: H-9 cells; assay: Cytoxicity on H-9 cells (drug inhibition, cell count); conditions: for H-9 Mean (drug inhibition): Table 4 summary; for % Inhibition Mean / Cells (×10^4) Mean / % Inhibition / Cells (×10^4): Exp. Dec. 05 to Dec. 09, 2005; for % Inhibition / Cells (×10^4): single replicates
Source text: (§1) The purified and identified analogs were subjected to in vitro biological testing. […] These three congeners were further evaluated in H9 and PC3 cells. AZT was employed as a positive control in all of these experiments.

[2] = test system: MCF-7 cells; assay: Cytoxicity on MCF-7 cells (drug inhibition, cell count); design: Drug Inhibition on MCF-7 Cells / MCF-7 Mean (drug inhibition) / Drug inhibition on MCF-7 Cells Mean: unit not given here; conditions: MCF-7 cells; for MCF-7 Mean (drug inhibition): Table 13 summary part; for Drug inhibition on MCF-7 Cells Mean: Table 14 summary part
Source text: as §1

[3] = test system: PC-3 cells; assay: Cytoxicity on PC-3 cells (drug inhibition, cell count); conditions: for % Inhibition Mean / Cells (×10^4) Mean / % Inhibition / Cells (×10^4): Exp. Nov. 11 to Nov. 17, 2005; for % Inhibition / Cells (×10^4): single replicates
Source text: The purified and identified analogs were subjected to in vitro biological testing.

[4] = 1 μg/ml, mean, Exp. Nov. 14 to Nov. 18, 2005
[5] = 1 μg/ml, mean, Exp. Sep. 08 to Sep. 12, 2005
[6] = 1 μg/ml, mean, Exp. Sep. 12 to Sep. 16, 2005
[7] = 1 μg/ml, mean, Exp. Sep. 26 to Sep. 30, 2005
[8] = 1 μg/ml, single replicates, Exp. Nov. 14 to Nov. 18, 2005
[9] = 1 μg/ml, single replicates, Exp. Sep. 08 to Sep. 12, 2005
[10] = 1 μg/ml, single replicates, Exp. Sep. 12 to Sep. 16, 2005
[11] = 1 μg/ml, single replicates, Exp. Sep. 26 to Sep. 30, 2005
[12] = 5 μg/ml, mean, Exp. Nov. 14 to Nov. 18, 2005
[13] = 5 μg/ml, mean, Exp. Sep. 08 to Sep. 12, 2005
[14] = 5 μg/ml, mean, Exp. Sep. 12 to Sep. 16, 2005
[15] = 5 μg/ml, mean, Exp. Sep. 26 to Sep. 30, 2005
[16] = 5 μg/ml, single replicates, Exp. Nov. 14 to Nov. 18, 2005
[17] = 5 μg/ml, single replicates, Exp. Sep. 08 to Sep. 12, 2005
[18] = 5 μg/ml, single replicates, Exp. Sep. 12 to Sep. 16, 2005
[19] = 5 μg/ml, single replicates, Exp. Sep. 26 to Sep. 30, 2005
[20] = 10 μg/ml, mean, Exp. Nov. 14 to Nov. 18, 2005
[21] = 10 μg/ml, mean, Exp. Sep. 08 to Sep. 12, 2005
[22] = 10 μg/ml, mean, Exp. Sep. 12 to Sep. 16, 2005
[23] = 10 μg/ml, mean, Exp. Sep. 26 to Sep. 30, 2005
[24] = 10 μg/ml, single replicates, Exp. Nov. 14 to Nov. 18, 2005
[25] = 10 μg/ml, single replicates, Exp. Sep. 08 to Sep. 12, 2005
[26] = 10 μg/ml, single replicates, Exp. Sep. 12 to Sep. 16, 2005
[27] = 10 μg/ml, single replicates, Exp. Sep. 26 to Sep. 30, 2005

Structure (SMILES): Cc1cn([C@H]2C[C@H](N=[N+]=[N-])[C@@H](CO)O2)c(=O)[nH]c1=O [AZT, reference compound]
- H-9 Mean (drug inhibition) ([1]; 1 μg/ml): 18.74
- % Inhibition Mean ([1]; 1 μg/ml): 18.74%
- Cells (×10^4) Mean ([1]; 1 μg/ml): 40.83 ×10^4
- % Inhibition ([1]; 1 μg/ml): 17.91% and 25.37% and 12.94%
- Cells (×10^4) ([1]; 1 μg/ml): 41.3 ×10^4 and 37.5 ×10^4 and 43.8 ×10^4
- H-9 Mean (drug inhibition) ([1]; 5 μg/ml): 38.47
- % Inhibition Mean ([1]; 5 μg/ml): 38.47%
- Cells (×10^4) Mean ([1]; 5 μg/ml): 30.92 ×10^4
- % Inhibition ([1]; 5 μg/ml): 39.30% and 40.30% and 35.82%
- Cells (×10^4) ([1]; 5 μg/ml): 30.5 ×10^4 and 30.0 ×10^4 and 32.3 ×10^4
- H-9 Mean (drug inhibition) ([1]; 10 μg/ml): 49.75
- % Inhibition Mean ([1]; 10 μg/ml): 49.75%
- Cells (×10^4) Mean ([1]; 10 μg/ml): 25.25 ×10^4
- % Inhibition ([1]; 10 μg/ml): 48.26% and 50.25% and 50.75%
- Cells (×10^4) ([1]; 10 μg/ml): 26.0 ×10^4 and 25.0 ×10^4 and 24.8 ×10^4
- Drug Inhibition on MCF-7 Cells ([2]; 1 μg/ml, Table 8 summary): 6.92
- Drug Inhibition on MCF-7 Cells ([2]; 1 μg/ml, Table 12 summary): 26.55
- MCF-7 Mean (drug inhibition) ([2]; 1 μg/ml): 25.77
- Drug inhibition on MCF-7 Cells Mean ([2]; 1 μg/ml): 21.53
- % Inhibition Mean [2, 4]: 6.92%
- Cells (×10^4) Mean [2, 4]: 53.83 ×10^4
- % Inhibition Mean [2, 5]: 25.77%
- Cells (×10^4) Mean [2, 5]: 52.33 ×10^4
- % Inhibition Mean [2, 6]: 21.53%
- Cells (x10^4) Mean [2, 6]: 45.25 x10^4
- % Inhibition Mean [2, 7]: 26.55%
- Cells (×10^4) Mean [2, 7]: 36.42 ×10^4
- % Inhibition [2, 8]: 8.36% and 4.47% and 7.93%
- Cells (×10^4) [2, 8]: 53.0 ×10^4 and 55.3 ×10^4 and 53.3 ×10^4
- % Inhibition [2, 9]: 27.66% and 23.76% and 25.89%
- Cells (×10^4) [2, 9]: 51.0 ×10^4 and 53.8 ×10^4 and 52.3 ×10^4
- % Inhibition [2, 10]: 22.83% and 20.23% and 21.53%
- Cells (x10^4) [2, 10]: 44.5 x10^4 and 46.0 x10^4 and 45.3 x10^4
- % Inhibition [2, 11]: 28.40% and 25.88% and 25.38%
- Cells (×10^4) [2, 11]: 35.5 ×10^4 and 36.8 ×10^4 and 37.0 ×10^4
- Drug Inhibition on MCF-7 Cells ([2]; 5 μg/ml, Table 8 summary): 38.62
- Drug Inhibition on MCF-7 Cells ([2]; 5 μg/ml, Table 12 summary): 46.86
- MCF-7 Mean (drug inhibition) ([2]; 5 μg/ml): 39.36
- Drug inhibition on MCF-7 Cells Mean ([2]; 5 μg/ml): 50.43
- % Inhibition Mean [2, 12]: 38.62%
- Cells (×10^4) Mean [2, 12]: 35.50 ×10^4
- % Inhibition Mean [2, 13]: 39.36%
- Cells (×10^4) Mean [2, 13]: 42.75 ×10^4
- % Inhibition Mean [2, 14]: 50.43%
- Cells (x10^4) Mean [2, 14]: 28.58 x10^4
- % Inhibition Mean [2, 15]: 46.86%
- Cells (×10^4) Mean [2, 15]: 26.35 ×10^4
- % Inhibition [2, 16]: 39.91% and 40.35% and 35.59%
- Cells (×10^4) [2, 16]: 34.8 ×10^4 and 34.5 ×10^4 and 37.3 ×10^4
- % Inhibition [2, 17]: 40.07% and 37.94%
- Cells (×10^4) [2, 17]: 42.3 ×10^4 (2×) and 43.8 ×10^4
- % Inhibition [2, 18]: 47.98% and 51.88% and 51.45%
- Cells (x10^4) [2, 18]: 30.0 x10^4 and 27.8 x10^4 and 28.0 x10^4
- % Inhibition [2, 19]: 49.98% and 45.04% and 45.55%
- Cells (×10^4) [2, 19]: 24.8 ×10^4 and 27.3 ×10^4 and 27.0 ×10^4
- Drug Inhibition on MCF-7 Cells ([2]; 10 μg/ml, Table 8 summary): 61.1
- Drug Inhibition on MCF-7 Cells ([2]; 10 μg/ml, Table 12 summary): 65.21
- MCF-7 Mean (drug inhibition) ([2]; 10 μg/ml): 57.45
- Drug inhibition on MCF-7 Cells Mean ([2]; 10 μg/ml): 65.03
- % Inhibition Mean [2, 20]: 61.10%
- Cells (×10^4) Mean [2, 20]: 22.50 ×10^4
- % Inhibition Mean [2, 21]: 57.45%
- Cells (×10^4) Mean [2, 21]: 30.00 ×10^4
- % Inhibition Mean [2, 22]: 65.03%
- Cells (x10^4) Mean [2, 22]: 20.17 x10^4
- % Inhibition Mean [2, 23]: 65.21%
- Cells (×10^4) Mean [2, 23]: 17.25 ×10^4
- % Inhibition [2, 24]: 61.53% and 60.23%
- Cells (×10^4) [2, 24]: 22.3 ×10^4 (2×) and 23.0 ×10^4
- % Inhibition [2, 25]: 57.45%
- Cells (×10^4) [2, 25]: 30.0 ×10^4
- % Inhibition [2, 26]: 69.65% and 62.72%
- Cells (x10^4) [2, 26]: 17.5 x10^4 and 21.5 x10^4 (2×)
- % Inhibition [2, 27]: 65.21% and 63.19% and 67.23%
- Cells (×10^4) [2, 27]: 17.3 ×10^4 and 18.3 ×10^4 and 16.3 ×10^4
- Cells (×10^4) Mean ([2]; drug 1 μg/ml, mean of replicates): 43.08 ×10^4
- % Inhibition Mean ([2]; drug 1 μg/ml, mean of replicates, vs 2% DMSO): 15.38%
- Cells (×10^4) ([2]; drug 1 μg/ml, single replicate count): 43.3 ×10^4 (2×) and 42.8 ×10^4
- % Inhibition ([2]; drug 1 μg/ml, single replicate, vs 2% DMSO): 15.06% and 16.04%
- Cells (×10^4) Mean ([2]; drug 5 μg/ml, mean of replicates): 32.08 ×10^4
- % Inhibition Mean ([2]; drug 5 μg/ml, mean of replicates, vs 2% DMSO): 36.99%
- Cells (×10^4) ([2]; drug 5 μg/ml, single replicate count): 31.5 ×10^4 and 32.3 ×10^4 and 32.5 ×10^4
- % Inhibition ([2]; drug 5 μg/ml, single replicate, vs 2% DMSO): 38.13% and 36.66% and 36.17%
- Cells (×10^4) Mean ([2]; drug 10 μg/ml, mean of replicates): 24.08 ×10^4
- % Inhibition Mean ([2]; drug 10 μg/ml, mean of replicates, vs 2% DMSO): 52.7%
- Cells (×10^4) ([2]; drug 10 μg/ml, single replicate count): 22.0 ×10^4 and 25.5 ×10^4 and 24.8 ×10^4
- % Inhibition ([2]; drug 10 μg/ml, single replicate, vs 2% DMSO): 56.79% and 49.92% and 51.39%
- Drug Inhibition on PC-3 cells ([3]; 1 μg/ml, Table 7): 17.27
- Drug Inhibition on PC-3 cells ([3]; 1 μg/ml, Table 10): 13.69
- % Inhibition Mean ([3]; 1 μg/ml): 13.69%
- Cells (×10^4) Mean ([3]; 1 μg/ml): 84.58 ×10^4
- % Inhibition ([3]; 1 μg/ml): 14.29% and 12.76% and 14.03%
- Cells (×10^4) ([3]; 1 μg/ml): 84.0 ×10^4 and 85.5 ×10^4 and 84.3 ×10^4
- Drug Inhibition on PC-3 cells ([3]; 5 μg/ml, Table 7): 43.23
- Cells (×10^4) Mean ([3]; 5 μg/ml): 17.33 ×10^4
- Cells (×10^4) ([3]; 5 μg/ml): 70.5 ×10^4 and 72.3 ×10^4 and 71.3 ×10^4
- Drug Inhibition on PC-3 cells ([3]; 10 μg/ml, Table 7): 59.67
- Drug Inhibition on PC-3 cells ([3]; 10 μg/ml, Table 10): 37.16
- % Inhibition Mean ([3]; 10 μg/ml): 37.16%
- Cells (×10^4) Mean ([3]; 10 μg/ml): 61.58 ×10^4
- % Inhibition ([3]; 10 μg/ml): 37.24% and 37.50% and 36.73%
- Cells (×10^4) ([3]; 10 μg/ml): 61.5 ×10^4 and 61.3 ×10^4 and 62.0 ×10^4
